In US20070264680A1, “Method and Test-Kit for the Detection and Quantification of Organisms” (PROTEUS S.A., priority 2004, published 2007):

What was measured:
[1] = system: benchmark bacterial strain having an esterase activity; experiment: Microbial decontamination efficiency of cleaning substances on contaminated plastic surfaces (esterase activity of swab); format: cell-based; conditions: remaining esterase activity after cleaning the plastic surface with an impregnated wipe; optical density at 414 nm; not cleaned: 3.474
Protocol: For this purpose, a benchmark bacterial strain having an esterase activity (isolated by traditional microbiological methods from samples collected from human foreheads) has been used to artificially contaminated surfaces. This strain has been prepared by an overnight incubation at 37° C. in LB medium. 200 μL of this cell preparation, corresponding to 6.107 cfu have been spread on five plastic surfaces and allowed to dry completely.
Samples have then been collected onto the different plastic surfaces using swabs beforehand impregnated with PBS containing 0.1% w/v of Triton X100. 16 μL of the transformable substrate (2-hydroxy-4-p-nitrophenoxy-butyl hexanoate 20 mM in DMSO) have been mixed with 184 μL of aqueous PBS buffer 0.1M pH7.3. The swab has been plunged in this mix and incubated for 1 h at 37° C. The swab has then been removed from the reaction mixture and 100 μL have been transferred to another vial. 4 μL of bovine serum albumin 50 mg/mL in water, 40 μL NaIO4 100 mM in water and 40 μL Na2CO3 200 mM in water have been added. The reaction mixture has been incubated for 10 min at room temperature and centrifuged for 15 min at 16000 g. The activity has then been quantified by measuring optical density at 414 nm.

[2] = system: Candida albicans (ATCC 10231); conditions: 0.3% in CSL, 30° C., reduction from 10^7, 24 h
Protocol: (§1) An EuAB test for antimicrobial activity was performed with Corynebacterium xerosis (DSM 20743), Staphylococcus epidermidis (DSM 3269) and Candida albicans (ATCC 10231). As culture medium CSL (Casein peptone-soybean meal peptone solution), CSA (Casein peptone-soybean meal pepton agar) and Sabouraud-glucose broth/agar was used.
(§2) As dilution liquid NaCl-peptone buffer solution with inactivator (3% Tween 80, 0.3% lecithin, 0.1% histidine and 0.5% Na thiosulfate) was used. Polyglyceryl-3 caprylate was tested in 0.3% (in CSL) concentration. The test solution was prepared one day before investigation. For this, 100 ml of CSL was heated to 60° C. in a water bath. 0.3 g was weighed into 100 ml of CSL at 60° C. The preparations were shaken vigorously by hand and left overnight at 30° C. in an incubator. Corynebacterium xerosis was cultivated over 3 to 4 days. Other microbes were isolated in broth or by elutriation. For each test microbe, 20 ml of each test solution were introduced into sterile 50 ml brown glass bottles with glass beads and contaminated with 0.2 ml of microbe suspension. As controls, 20 ml of CSL were carried over per test microbe without sample.
(§3) The contaminated samples were shaken for 3 min on a shaking machine and kept in an incubator at 30° C. until removed. At the removal points (1, 2, 3, 24 and 48 hours) 1 ml was taken from each preparation and transferred in each case to 9 ml of NaCl-peptone buffer solution with inactivator and the colony number was determined. The 0 hour values given were the colony numbers of the test microbe suspension used taking into consideration the 10^−2 dilution upon sample contamination.

[3] = system: Corynebacterium xerosis (DSM 20743); conditions: 0.3% in CSL, 30° C., reduction from 10^7, 24 h
Protocol: as §1, §2, §3

[4] = system: Staphylococcus epidermidis (DSM 3269); conditions: 0.3% in CSL, 30° C., reduction from 10^7, 24 h
Protocol: as §1, §2, §3

Compound | activity [1] | bacteria count (colony number) after 24 h [2] | bacteria count (colony number) after 24 h [3] | bacteria count (colony number) after 24 h [4]
CCO [70% ethanol, ethanol] | 0.195 | – | – | –
polyglyceryl-3 caprylate | – | less than 270 | less than 270 | less than 270
O [water] | 0.100 | – | – | –
